Reference: US20210255168A1, “A METHOD OF PRECISION CANCER THERAPY” (KING FAISAL SPECIALIST HOSPITAL & RESEARCH CENTRE, priority 2018, published 2021)

Assays:
[1] = tested on: TNF-α-ARE luciferase reporter in MDA-MB-231 cells; test: Post-transcriptional ARE luciferase reporter assay (kinase inhibitor library screen); format: cell-based; conditions: 0.5, 2 and 5 μM, ARE and non-ARE reporters
[2] = tested on: TNF-α-ARE luciferase reporter in MDA-MB-231 cells; test: as above; format: cell-based; conditions: for reduction of ARE-reporter activity (in words): PK inhibitor library
Text: Reporters were designed to be driven by the ribosomal protein subunit 30 (RPS30) promoter. The promoter was amplified using PCR with primers specific to the flanking region of the RPS30 promoter sequence. The gene structure of RPS30 was obtained from the Ribosomal Protein Database (http://ribosome.med.miyazaki-u.ac.jp). The forward and reverse primers included the restriction sites, EcoR V and SalI sites. Amplified DNA fragments were then resolved in 1.2%-1.5% agarose gel and the amplicon bands were excised, purified and cloned into the promoterless plasmid. TNF-α 3′-UTR and TNF-α ARE were used to study the role of AU-rich elements in the action of PKs inhibitors. The AU-rich sequence that comprised 250 bases from TNF-α 3′UTR (1200-1450 bp, NM_00059) was amplified by PCR using the forward primer 5′-[…]-3′ (SEQ ID NO:1) and the reverse primer 5′-[…]-3′ (SEQ ID NO:2). The TNF-α-ARE sequence was made by annealing two synthetic complementary oligonucleotides of 70 bases that correspond to TNF-α ARE. The control reporter was constructed to have the basic structure of post-transcriptional reporter except 3′UTR which lack the AU-rich element sequence like this of bovine growth hormone. Any ARE reiterations or variations can be used, with minimal sequence is AUUUA, preferably, WW(AUUUA)WW, where W=A or U. They can be also repeated as an overall, e.g., AUUUAUUA, anywhere from 0 to 10 repeats as example.
Selleckchem Kinase Inhibitor Library that includes a selection of 378 pharmacologically active inhibitors of a number of protein kinases was purchased from Selleckchem. (Houston, Tex., USA). This library is a collection of 378 kinase inhibitors some of which have been approved by the FDA. Each compound is provided as a pre-dissolved 10 mM dimethyl sulfoxide (DMSO) solution as a 96 well format tube (100 μL). The compounds were diluted by OPTI-MEM (Thermo Fisher Scientific, Waltham, Mass., USA) to a final concentration of 5 μM.
Post-transcriptional and control reporter constructs were transfected to MDA-MB-231 cells separately that were seeded in 96-well microplates at a density of 4×10^4 cells/well and incubated overnight. Using lipofectamine 2000 protocol (Invitrogen, Carlsbad, Calif., USA), the cells were transfected with 10 ng of either RPS30-luciferase-control 3′UTR or RPS30-luciferase-ARE 3′UTR reporter plasmids. After 24 h, the cells were treated with each member of protein kinase inhibitors kit for 24 h. Then, luciferase reaction was performed as prescribed by manufacture's protocol (Nano-Glo Luciferase, Promega, Madison, Wis., USA)/well. After 15 minutes, the reporters' activities were measured through the measurement of the chemiluminescence (FIG. 8) after treatment using a Zenith 3100 (Anthos Labtec, Eugendorf, Austria).
Data are presented as means±standard error of the mean (SEM). Two-sample Student's t-test was used to determine the differences between two data sets. One-way analysis of variance (ANOVA) was used to compare three or more data columns. Two-way analysis of variance was used to analyze two groups of data, each having two data columns. Analysis was performed using GraphPad Prism version 6.00 for Windows, (GraphPad Software, La Jolla Calif., USA). For high throughput screening (HTS) hit selection (protein kinase inhibitors), strictly standardized mean difference (SSMD) test was used. This statistical test measures the size of effect of each member in a group relative to the other members. It is the mean of each member divided by the standard deviation of the difference between two random values from different groups. Based on the value of SSMD, the effect of each member of the library was classified as strong (β≥5), moderate (1≤β<5), and weak (β<1). In this study, only drug with SSMD score more than or equal to 5 or less than or equal to −5, i.e. strong β, where selected in the primary screening. […]

[3] = tested on: MDA-MB-231, MCF7, and SKBR3 cell lines; test: mRNA expression in breast cancer cell lines; format: cell-based; conditions: MCF7, MDA-MB-231 and SKBR3; most of the cancer cell lines
Protocol: Cells were cultured in six-well plates and either treated with DMSO or drugs for 24 h. Total RNA was then extracted using Trizol reagent (TRI Reagent, Sigma-Aldrich, St Louis, Mo.). The cells were lysed directly on the culture dish by adding 1 ml of the TRI Reagent per 10 cm^2 surface area. Reverse transcription for preparation of cDNA was performed using 3 μg of total RNA, 150 ng random primers, 0.1 M dithiothreitol (DTT), 10 mM deoxynucleotide triphosphate (dNTP) and 200 U of SuperScript II (Invitrogen, Foster City, Calif.). The quantitative RT-QPCR was performed in multiplex in the Chroma 4 DNA Engine cycler (BioRad, Hercules, Calif., USA) using FAM-labelled TaqMan probes (Applied Biosystems, Foster City, Calif., USA) for TTP (ZFP36), HuR (ELAVL1), uPA (PLAU)-CXCR4, MMP-1, MMP-13, IL-8, PLK-1 while a VIC-labelled glyceraldehyde-3-phosphate dehydrogenase (GAPDH) probe was used as the endogenous control. Samples were amplified in triplicate and quantification of relative expression was performed using the estimation of quantitation cycle (Cq) method.
PLK1 kinase, as an example of kinases involved in cancer, is over-expressed in breast cancer cell lines, including MCF7, MDA-MB-231 and SKBR3 when compared to the normal-like MCF10A (FIG. 5A). Many kinases are either over-expressed or constitutively active or hyperactive in cancer states when compared to normal cells. As example of inhibitors that are found in the precision cancer therapy screen, Volasertib and Regorafenib (VEGFR kinase inhibitor) led to reduction in the level of ARE-containing mRNA, uPA in most of the cancer cell lines. (FIG. 5B).
The present inventors further disclose that the effect of PLK-1 inhibition is consistent among different types of breast cancer including triple-negative, […], and ER-PR negative breast cancers, as shown through the actions induced by PLK-1 inhibitor volasertib on MDA-MB-231, MCF7, and SKBR3 cell lines, namely increasing the expression of TTP, decreasing the HuR level, and downregulating the TTP target uPA. […] Accordingly, the present inventor discloses that any protein kinase inhibitor which post-transcriptionally regulates expression of cancer-related genes is suitable for precision cancer therapy. Further disclosed is a method of treatment of cancer comprising administering said protein kinase inhibitor, to a patient in need thereof.

PLK-3 = PLK-3 (Homo sapiens, UniProt Q9H4B4); conditions: cited from earlier work
PLK-3, sequence (Q9H4B4 whole entry, species assumed): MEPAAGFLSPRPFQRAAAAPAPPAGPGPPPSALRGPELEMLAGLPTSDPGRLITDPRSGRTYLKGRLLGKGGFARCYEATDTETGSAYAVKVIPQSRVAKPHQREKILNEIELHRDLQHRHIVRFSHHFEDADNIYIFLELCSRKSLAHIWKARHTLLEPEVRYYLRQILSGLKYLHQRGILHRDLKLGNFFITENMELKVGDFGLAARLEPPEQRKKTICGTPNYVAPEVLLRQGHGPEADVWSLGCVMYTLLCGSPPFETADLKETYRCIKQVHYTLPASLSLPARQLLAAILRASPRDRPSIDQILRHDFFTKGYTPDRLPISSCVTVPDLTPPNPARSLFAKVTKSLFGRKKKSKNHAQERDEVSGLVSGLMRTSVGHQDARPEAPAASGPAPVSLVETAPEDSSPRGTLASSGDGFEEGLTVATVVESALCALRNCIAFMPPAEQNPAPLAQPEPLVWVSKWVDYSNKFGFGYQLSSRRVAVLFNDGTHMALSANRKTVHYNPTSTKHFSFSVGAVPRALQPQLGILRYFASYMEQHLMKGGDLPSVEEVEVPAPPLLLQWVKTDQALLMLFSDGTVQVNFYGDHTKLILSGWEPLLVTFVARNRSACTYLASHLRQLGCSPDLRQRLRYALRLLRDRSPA

PLK-2 = PLK-2 (Homo sapiens, UniProt Q9NYY3); conditions: cited from earlier work
PLK-2, sequence (Q9NYY3 whole entry, species assumed): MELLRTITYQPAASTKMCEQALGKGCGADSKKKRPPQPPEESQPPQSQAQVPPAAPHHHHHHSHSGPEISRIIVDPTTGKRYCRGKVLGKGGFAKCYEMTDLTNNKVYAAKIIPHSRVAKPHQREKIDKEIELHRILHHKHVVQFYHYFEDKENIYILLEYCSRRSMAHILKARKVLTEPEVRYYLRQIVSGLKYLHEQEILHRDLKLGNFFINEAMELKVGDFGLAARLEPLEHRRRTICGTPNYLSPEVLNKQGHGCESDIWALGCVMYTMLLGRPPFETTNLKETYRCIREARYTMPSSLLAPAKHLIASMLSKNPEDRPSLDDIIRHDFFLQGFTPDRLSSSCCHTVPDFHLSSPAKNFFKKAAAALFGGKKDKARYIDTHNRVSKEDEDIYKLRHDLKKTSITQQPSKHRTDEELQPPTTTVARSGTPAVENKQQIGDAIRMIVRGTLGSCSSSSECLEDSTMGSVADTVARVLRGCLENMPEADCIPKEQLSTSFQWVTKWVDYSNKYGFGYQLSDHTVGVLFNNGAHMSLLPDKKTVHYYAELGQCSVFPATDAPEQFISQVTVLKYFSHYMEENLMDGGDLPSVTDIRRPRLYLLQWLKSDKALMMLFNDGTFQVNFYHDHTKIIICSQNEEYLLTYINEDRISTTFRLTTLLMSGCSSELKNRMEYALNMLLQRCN

With `Cc1ccc(NC(=O)c2cccc(C(C)(C)C#N)c2)cc1Nc1ccc2ncn(C)c(=O)c2c1` [AZ628] the “ARE-dependent mRNA regulation confirmed in later stages of screening compared to a non-ARE reporter” value [1] was “confirmed to be involved in ARE-dependent mRNA regulation”.
For `CC[C@@H]1C(=O)N(C)c2cnc(Nc3ccc(C(=O)NC4CCN(C)CC4)cc3OC)nc2N1C1CCCC1` [BI 2536], the “reduction of TNF-ARE luciferase reporter activity” value ([2]; primary screening, 5 μM) was 35% and the “reduction in percent reporter activity in the secondary screening compared to the control reporter” value ([2]; secondary screening, ARE vs non-ARE control reporter) was 16%.
For `C[C@@H](Oc1cc(-n2cnc3ccc(CN4CCN(C)CC4)cc32)sc1C(N)=O)c1ccccc1C(F)(F)F` [GSK461364], the “reduction of ARE-reporter activity (in words)” value (“reduction … (in words)” for short) [2] was “did not reduce”.
With `COc1ccc(S(=O)(=O)N(C(C)=O)c2ccccc2/C=C/c2cc[n+]([O-])cc2)cc1` [HMN-214] the “reduction … (in words)” value [2] was “did not reduce”.
In the case of `CN1CCN(c2ccc(OC(F)(F)F)c(Nc3ncc4c(n3)-c3c(c(C(N)=O)nn3CCO)CC4)c2)CC1` [NMS-P937], the “reduction … (in words)” value [2] was “did not reduce”.
With `CNC(=O)c1cc(Oc2ccc(NC(=O)Nc3ccc(Cl)c(C(F)(F)F)c3)c(F)c2)ccn1` [Regorafenib] the “ARE-dependent mRNA regulation confirmed in later stages of screening compared to a non-ARE reporter” value [1] was “confirmed to be involved in ARE-dependent mRNA regulation” and the “level of ARE-containing mRNA uPA in cancer cell lines” value [3] was “reduction”.
For `COc1cc(OC)c(/C=C/S(=O)(=O)Cc2ccc(OC)c(NCC(=O)O)c2)c(OC)c1` [rigosertib], the “activity on PLK-3” value (PLK-3) is given as “no activity”, the “selectivity (PLK-1) against PLK-2” value (PLK-2) is given as “more than 30 fold” and the “reduction … (in words)” value [2] is given as “did not reduce”.
For Ro3280, the “reduction … (in words)” value [2] was “did not reduce”.
